From the NIST ThermoML archive (doi:10.1021/acs.jced.5b00813)
Numbers after ± are expanded uncertainties.

Legend:
[1] = 298.15 K; 100 kPa; Liquid; Vibrating tube method
[2] = refractive index (Na D-line) (dimensionless); settings: 298.15 K; 101.33 kPa; Liquid; Standard Abbe refractometry
[3] = xn = mol fraction of the nth substance listed; settings: 298.15 K, 100 kPa, Liquid, Vibrating tube method
[4] = excess molar enthalpy (molar enthalpy of mixing); xn = mol fraction of the nth substance listed; settings: 298.15 K, 100 kPa, Liquid, Calvet calorimetry

## CC(C)CC(C)(C)C [2,2,4-trimethylpentane]
[1]
  mass density: 687.75 ± 1 kg/m3
[2]
  refractive index: 1.389 ± 0.0005

## CC(C)CC(C)(C)C [2,2,4-trimethylpentane] + CCCC(=O)OC
[3]; x1 = 1
  mass density: 687.75 ± 1 kg/m3

## CC(C)CC(C)(C)C [2,2,4-trimethylpentane] + CCCCC(=O)OC
[3]; x1 = 1
  mass density: 687.75 ± 1 kg/m3

## CC(C)CC(C)(C)C [2,2,4-trimethylpentane] + COC(C)=O
[3]; x1 = 1
  mass density: 687.75 ± 1 kg/m3

## CCCC(=O)OC [methyl butanoate]
[1]
  mass density: 892.34 ± 1 kg/m3
[2]
  refractive index: 1.3845 ± 0.0005

## CCCC(=O)OC [methyl butanoate] + CC(C)CC(C)(C)C
[4]; x2 = 0.0389
  excess molar enthalpy: 0.0385 ± 0.000956 kcal/mol
[4]; x2 = 0.0858
  excess molar enthalpy: 0.0793 ± 0.00167 kcal/mol
[4]; x2 = 0.1367
  excess molar enthalpy: 0.119 ± 0.00263 kcal/mol
[4]; x2 = 0.1916
  excess molar enthalpy: 0.156 ± 0.00335 kcal/mol
[4]; x2 = 0.2446
  excess molar enthalpy: 0.186 ± 0.00406 kcal/mol
[4]; x2 = 0.2982
  excess molar enthalpy: 0.211 ± 0.00454 kcal/mol
[4]; x2 = 0.3481
  excess molar enthalpy: 0.23 ± 0.00502 kcal/mol
[4]; x2 = 0.3959
  excess molar enthalpy: 0.243 ± 0.00526 kcal/mol
[4]; x2 = 0.4256
  excess molar enthalpy: 0.251 ± 0.0055 kcal/mol
[4]; x2 = 0.4407
  excess molar enthalpy: 0.252 ± 0.0055 kcal/mol
[4]; x2 = 0.4767
  excess molar enthalpy: 0.254 ± 0.0055 kcal/mol
[4]; x2 = 0.5375
  excess molar enthalpy: 0.255 ± 0.0055 kcal/mol
[4]; x2 = 0.6052
  excess molar enthalpy: 0.246 ± 0.00526 kcal/mol
[4]; x2 = 0.6813
  excess molar enthalpy: 0.225 ± 0.00478 kcal/mol
[4]; x2 = 0.7629
  excess molar enthalpy: 0.189 ± 0.00406 kcal/mol
[4]; x2 = 0.8494
  excess molar enthalpy: 0.135 ± 0.00287 kcal/mol
[4]; x2 = 0.9353
  excess molar enthalpy: 0.0722 ± 0.00167 kcal/mol
[3]; x2 = 0
  mass density: 892.34 ± 1 kg/m3
[3]; x2 = 0.0344
  mass density: 881.71 ± 1 kg/m3
[3]; x2 = 0.0633
  mass density: 873.2 ± 1 kg/m3
[3]; x2 = 0.1096
  mass density: 860.1 ± 1 kg/m3
[3]; x2 = 0.1334
  mass density: 853.55 ± 1 kg/m3
[3]; x2 = 0.1539
  mass density: 848 ± 1 kg/m3
[3]; x2 = 0.2013
  mass density: 835.7 ± 1 kg/m3
[3]; x2 = 0.2471
  mass density: 824.1 ± 1 kg/m3
[3]; x2 = 0.2981
  mass density: 811.9 ± 1 kg/m3
[3]; x2 = 0.3973
  mass density: 789.58 ± 1 kg/m3
[3]; x2 = 0.441
  mass density: 780.3 ± 1 kg/m3
[3]; x2 = 0.5431
  mass density: 760 ± 1 kg/m3
[3]; x2 = 0.5901
  mass density: 751.22 ± 1 kg/m3
[3]; x2 = 0.6801
  mass density: 735.3 ± 1 kg/m3
[3]; x2 = 0.7243
  mass density: 727.9 ± 1 kg/m3
[3]; x2 = 0.8239
  mass density: 712.2 ± 1 kg/m3
[3]; x2 = 0.8708
  mass density: 705.2 ± 1 kg/m3
[3]; x2 = 0.8863
  mass density: 703.02 ± 1 kg/m3
[3]; x2 = 0.9158
  mass density: 698.8 ± 1 kg/m3
[3]; x2 = 0.9816
  mass density: 689.84 ± 1 kg/m3

## CCCC(=O)OC [methyl butanoate] + CCCCCCCC
[4]; x2 = 0.0438
  excess molar enthalpy: 0.0509 ± 0.0012 kcal/mol
[4]; x2 = 0.0922
  excess molar enthalpy: 0.0987 ± 0.00215 kcal/mol
[4]; x2 = 0.144
  excess molar enthalpy: 0.144 ± 0.00311 kcal/mol
[4]; x2 = 0.1978
  excess molar enthalpy: 0.184 ± 0.00406 kcal/mol
[4]; x2 = 0.2521
  excess molar enthalpy: 0.218 ± 0.00478 kcal/mol
[4]; x2 = 0.3043
  excess molar enthalpy: 0.244 ± 0.00526 kcal/mol
[4]; x2 = 0.3543
  excess molar enthalpy: 0.264 ± 0.00574 kcal/mol
[4]; x2 = 0.403
  excess molar enthalpy: 0.278 ± 0.00598 kcal/mol
[4]; x2 = 0.4321
  excess molar enthalpy: 0.286 ± 0.00621 kcal/mol
[4]; x2 = 0.4779
  excess molar enthalpy: 0.291 ± 0.00621 kcal/mol
[4]; x2 = 0.5368
  excess molar enthalpy: 0.288 ± 0.00621 kcal/mol
[4]; x2 = 0.6033
  excess molar enthalpy: 0.276 ± 0.00598 kcal/mol
[4]; x2 = 0.676
  excess molar enthalpy: 0.251 ± 0.0055 kcal/mol
[4]; x2 = 0.757
  excess molar enthalpy: 0.21 ± 0.00454 kcal/mol
[4]; x2 = 0.8413
  excess molar enthalpy: 0.153 ± 0.00335 kcal/mol
[4]; x2 = 0.9231
  excess molar enthalpy: 0.0865 ± 0.00191 kcal/mol
[3]; x2 = 0
  mass density: 892.34 ± 1 kg/m3
[3]; x2 = 0.059
  mass density: 875.04 ± 1 kg/m3
[3]; x2 = 0.1109
  mass density: 860.65 ± 1 kg/m3
[3]; x2 = 0.152
  mass density: 849.82 ± 1 kg/m3
[3]; x2 = 0.2051
  mass density: 836.56 ± 1 kg/m3
[3]; x2 = 0.2557
  mass density: 824.52 ± 1 kg/m3
[3]; x2 = 0.2992
  mass density: 814.89 ± 1 kg/m3
[3]; x2 = 0.3501
  mass density: 803.53 ± 1 kg/m3
[3]; x2 = 0.4045
  mass density: 792.24 ± 1 kg/m3
[3]; x2 = 0.4516
  mass density: 782.9 ± 1 kg/m3
[3]; x2 = 0.4978
  mass density: 774.12 ± 1 kg/m3
[3]; x2 = 0.5469
  mass density: 765.18 ± 1 kg/m3
[3]; x2 = 0.5862
  mass density: 758.27 ± 1 kg/m3
[3]; x2 = 0.6551
  mass density: 746.75 ± 1 kg/m3
[3]; x2 = 0.6989
  mass density: 739.74 ± 1 kg/m3
[3]; x2 = 0.7471
  mass density: 732.42 ± 1 kg/m3
[3]; x2 = 0.7931
  mass density: 725.7 ± 1 kg/m3
[3]; x2 = 0.8428
  mass density: 718.65 ± 1 kg/m3
[3]; x2 = 0.9009
  mass density: 710.74 ± 1 kg/m3
[3]; x2 = 0.9367
  mass density: 706.37 ± 1 kg/m3
[3]; x2 = 0.9651
  mass density: 702.84 ± 1 kg/m3
[3]; x2 = 0.9655
  mass density: 702.79 ± 1 kg/m3

## CCCC(=O)OC [methyl butanoate] + COC(C)=O
[4]; x1 = 0.027
  excess molar enthalpy: 0.00526 ± 0.000239 kcal/mol
[4]; x1 = 0.0962
  excess molar enthalpy: 0.0127 ± 0.000478 kcal/mol
[4]; x1 = 0.1645
  excess molar enthalpy: 0.0198 ± 0.000478 kcal/mol
[4]; x1 = 0.226
  excess molar enthalpy: 0.0244 ± 0.000717 kcal/mol
[4]; x1 = 0.2888
  excess molar enthalpy: 0.0287 ± 0.000717 kcal/mol
[4]; x1 = 0.3478
  excess molar enthalpy: 0.0323 ± 0.000717 kcal/mol
[4]; x1 = 0.4002
  excess molar enthalpy: 0.0342 ± 0.000717 kcal/mol
[4]; x1 = 0.4437
  excess molar enthalpy: 0.0356 ± 0.000956 kcal/mol
[4]; x1 = 0.4822
  excess molar enthalpy: 0.0361 ± 0.000956 kcal/mol
[4]; x1 = 0.5276
  excess molar enthalpy: 0.0356 ± 0.000956 kcal/mol
[4]; x1 = 0.5725
  excess molar enthalpy: 0.0349 ± 0.000717 kcal/mol
[4]; x1 = 0.6268
  excess molar enthalpy: 0.033 ± 0.000717 kcal/mol
[4]; x1 = 0.6958
  excess molar enthalpy: 0.0292 ± 0.000717 kcal/mol
[4]; x1 = 0.7669
  excess molar enthalpy: 0.0239 ± 0.000717 kcal/mol
[4]; x1 = 0.8497
  excess molar enthalpy: 0.0165 ± 0.000478 kcal/mol
[4]; x1 = 0.9313
  excess molar enthalpy: 0.0086 ± 0.000239 kcal/mol
[3]; x1 = 0.0106
  mass density: 926.21 ± 1 kg/m3
[3]; x1 = 0.0564
  mass density: 923.86 ± 1 kg/m3
[3]; x1 = 0.1023
  mass density: 921.52 ± 1 kg/m3
[3]; x1 = 0.1361
  mass density: 919.91 ± 1 kg/m3
[3]; x1 = 0.203
  mass density: 916.91 ± 1 kg/m3
[3]; x1 = 0.2536
  mass density: 914.74 ± 1 kg/m3
[3]; x1 = 0.3054
  mass density: 912.64 ± 1 kg/m3
[3]; x1 = 0.4122
  mass density: 908.65 ± 1 kg/m3
[3]; x1 = 0.4511
  mass density: 907.3 ± 1 kg/m3
[3]; x1 = 0.5456
  mass density: 904.19 ± 1 kg/m3
[3]; x1 = 0.5906
  mass density: 902.8 ± 1 kg/m3
[3]; x1 = 0.6148
  mass density: 902.08 ± 1 kg/m3
[3]; x1 = 0.6958
  mass density: 899.76 ± 1 kg/m3
[3]; x1 = 0.7394
  mass density: 898.57 ± 1 kg/m3
[3]; x1 = 0.7873
  mass density: 897.29 ± 1 kg/m3
[3]; x1 = 0.8368
  mass density: 896.07 ± 1 kg/m3
[3]; x1 = 0.8884
  mass density: 894.85 ± 1 kg/m3
[3]; x1 = 0.9538
  mass density: 893.32 ± 1 kg/m3
[3]; x1 = 0.974
  mass density: 892.87 ± 1 kg/m3
[3]; x1 = 1
  mass density: 892.34 ± 1 kg/m3

## COC(C)=O [methyl ethanoate]
[1]
  mass density: 927.16 ± 1 kg/m3
[2]
  refractive index: 1.3588 ± 0.0005

## COC(C)=O [methyl ethanoate] + CC(C)CC(C)(C)C
[4]; x2 = 0.02
  excess molar enthalpy: 0.037 ± 0.0012 kcal/mol
[4]; x2 = 0.0525
  excess molar enthalpy: 0.0989 ± 0.00239 kcal/mol
[4]; x2 = 0.0892
  excess molar enthalpy: 0.158 ± 0.00335 kcal/mol
[4]; x2 = 0.1241
  excess molar enthalpy: 0.205 ± 0.00454 kcal/mol
[4]; x2 = 0.1687
  excess molar enthalpy: 0.25 ± 0.0055 kcal/mol
[4]; x2 = 0.2084
  excess molar enthalpy: 0.291 ± 0.00621 kcal/mol
[4]; x2 = 0.256
  excess molar enthalpy: 0.331 ± 0.00717 kcal/mol
[4]; x2 = 0.3079
  excess molar enthalpy: 0.369 ± 0.00789 kcal/mol
[4]; x2 = 0.3608
  excess molar enthalpy: 0.397 ± 0.00837 kcal/mol
[4]; x2 = 0.3915
  excess molar enthalpy: 0.409 ± 0.00884 kcal/mol
[4]; x2 = 0.4323
  excess molar enthalpy: 0.421 ± 0.00908 kcal/mol
[4]; x2 = 0.4764
  excess molar enthalpy: 0.428 ± 0.00908 kcal/mol
[4]; x2 = 0.5406
  excess molar enthalpy: 0.42 ± 0.00908 kcal/mol
[4]; x2 = 0.6163
  excess molar enthalpy: 0.393 ± 0.00837 kcal/mol
[4]; x2 = 0.6888
  excess molar enthalpy: 0.348 ± 0.00741 kcal/mol
[4]; x2 = 0.7833
  excess molar enthalpy: 0.275 ± 0.00598 kcal/mol
[4]; x2 = 0.8597
  excess molar enthalpy: 0.189 ± 0.00406 kcal/mol
[4]; x2 = 0.9422
  excess molar enthalpy: 0.0851 ± 0.00191 kcal/mol
[3]; x2 = 0
  mass density: 927.16 ± 1 kg/m3
[3]; x2 = 0.0375
  mass density: 906.89 ± 1 kg/m3
[3]; x2 = 0.1025
  mass density: 876.58 ± 1 kg/m3
[3]; x2 = 0.1652
  mass density: 851.09 ± 1 kg/m3
[3]; x2 = 0.1775
  mass density: 846.59 ± 1 kg/m3
[3]; x2 = 0.2189
  mass density: 832.07 ± 1 kg/m3
[3]; x2 = 0.2615
  mass density: 818.03 ± 1 kg/m3
[3]; x2 = 0.302
  mass density: 805.95 ± 1 kg/m3
[3]; x2 = 0.3902
  mass density: 782.41 ± 1 kg/m3
[3]; x2 = 0.4061
  mass density: 778.52 ± 1 kg/m3
[3]; x2 = 0.4249
  mass density: 774.09 ± 1 kg/m3
[3]; x2 = 0.4627
  mass density: 765.54 ± 1 kg/m3
[3]; x2 = 0.5239
  mass density: 752.92 ± 1 kg/m3
[3]; x2 = 0.5411
  mass density: 749.57 ± 1 kg/m3
[3]; x2 = 0.61
  mass density: 737.18 ± 1 kg/m3
[3]; x2 = 0.6612
  mass density: 728.76 ± 1 kg/m3
[3]; x2 = 0.6786
  mass density: 726.1 ± 1 kg/m3
[3]; x2 = 0.7359
  mass density: 717.6 ± 1 kg/m3
[3]; x2 = 0.8086
  mass density: 708.07 ± 1 kg/m3
[3]; x2 = 0.8803
  mass density: 699.86 ± 1 kg/m3
[3]; x2 = 0.9521
  mass density: 692.07 ± 1 kg/m3
